These results are taken from patent US7842838B2, “Pyrro[1,2-b]pyridazinone intermediates” (Anadys Pharmaceuticals, Inc., priority 2006, dated 2010).

Usually IC50 stands for the point on the concentration scale where inhibition reaches its midpoint.

The target of the first assay is NS5B polymerase (Hepatitis C virus genotype 1b, UniProt P26663). The experiment in a line: HCV NS5B polymerase inhibition assay (streptavidin-coated FlashPlate, [α-33P]GTP incorporation). Type of assay: biochemical.
Sequence of NS5B polymerase (P26663 2420-3010): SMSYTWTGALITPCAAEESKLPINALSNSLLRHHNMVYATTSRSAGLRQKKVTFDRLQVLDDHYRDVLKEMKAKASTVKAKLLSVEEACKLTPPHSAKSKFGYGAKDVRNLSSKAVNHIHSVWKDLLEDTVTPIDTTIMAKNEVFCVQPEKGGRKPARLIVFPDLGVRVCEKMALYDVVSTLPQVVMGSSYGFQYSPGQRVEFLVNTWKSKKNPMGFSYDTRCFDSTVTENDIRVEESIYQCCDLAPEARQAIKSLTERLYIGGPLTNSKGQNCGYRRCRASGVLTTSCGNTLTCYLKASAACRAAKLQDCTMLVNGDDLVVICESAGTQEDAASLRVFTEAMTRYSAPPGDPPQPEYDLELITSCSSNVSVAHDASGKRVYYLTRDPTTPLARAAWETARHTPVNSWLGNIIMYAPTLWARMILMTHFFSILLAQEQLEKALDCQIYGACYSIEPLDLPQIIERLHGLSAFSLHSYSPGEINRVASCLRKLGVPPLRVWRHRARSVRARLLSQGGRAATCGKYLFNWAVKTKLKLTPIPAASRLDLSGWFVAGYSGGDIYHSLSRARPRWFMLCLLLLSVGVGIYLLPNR
Details: not given
As for the experimental part: Compounds were tested for HCV polymerase inhibition. Assays were performed in a 96-well streptavidin-coated FlashPlate using 20 nM enzyme, 0.5 μCi of [α-^33P]GTP, 0.6 μM GTP, and 250 nM 5′biotinylated oligo (rG13)/poly rC in 20 mM Tris-HCl, pH 7.5, 5 mM MgCl2, 5 mM dithiothreitol, […] bovine serum albumin, and 100 U/mL RNAse inhibitor. The reaction was stopped by aspiration after 75 min at 28° C. and the plate was washed several times. After washing and drying the plate, incorporated radioactivity was counted using a Microbeta scintillation counter. IC50 values were calculated relative to the uninhibited control and inhibition data were fitted to a 4-parameter IC50 equation.
For the compound `CC(C)CCn1c(=O)c(C2=Nc3ccc(NS(C)(=O)=O)cc3S(=O)(=O)N2)c(O)c2cccn21` [Example 3, N-{3-[4-Hydroxy-1-(3-methyl-butyl)-2-oxo-1,2-dihydro-pyrrolo[1,2-b]pyridazin-3-yl]-1,1-dioxo-1,4-dihydro-1λ^6-benzo[1,2,4]thiadiazin-7-yl}-methanesulfonamide], the IC50 was less than 100 nM.

With `CS(=O)(=O)Nc1ccc2c(c1)S(=O)(=O)N=C(c1c(O)c3cccn3n(Cc3ccc(F)c(Cl)c3)c1=O)N2` [Example 17, N-{3-[1-(3-Chloro-4-fluoro-benzyl)-4-hydroxy-2-oxo-1,2-dihydro-pyrrolo[1,2-b]pyridazin-3-yl]-1,1-dioxo-1,4-dihydro-1λ^6-benzo[1,2,4]thiadiazin-7-yl}-methanesulfonamide], the IC50 was less than 100 nM.

The same assay, now with this note: 20 nM enzyme, 75 min at 28° C.; read-out: NS5B Polymerase IC50.
As to `CN(c1ccc2c(c1)S(=O)(=O)N=C(c1c(O)c3cccn3n(Cc3ccc(F)cc3)c1=O)N2)S(C)(=O)=O` [Example 10, N-{3-[1-(4-Fluoro-benzyl)-4-hydroxy-2-oxo-1,2-dihydro-pyrrolo[1,2-b]pyridazin-3-yl]-1-dioxo-1,4-dihydro-1λ^6-benzo[1,2,4]thiadiazin-7-yl}-N-methyl-methanesulfonamide], the IC50 was 100 to 3000 nM.

For the compound `CC(C)CCn1c(=O)c(C2=NS(=O)(=O)c3cc(N(C)S(C)(=O)=O)ccc3N2)c(O)c2cccn21` [Example 6, N-{3-[4-Hydroxy-1-(3-methyl-butyl)-2-oxo-1,2-dihydro-pyrrolo[1,2-b]pyridazin-3-yl]-1,1-dioxo-1,4-dihydro-1λ^6-benzo[1,2,4]thiadiazin-7-yl}-N-methyl-methanesulfonamide], the IC50 lay in the range of 100 to 3000 nM.

As for `O=c1c(C2=NS(=O)(=O)c3cc(C4CCCS4(=O)=O)ccc3N2)c(O)c2cccn2n1Cc1ccc(F)cc1` (centres unmarked) [Example 11, 3-[7-(1,1-Dioxo-tetrahydro-1λ^6-thiophen-2-yl)-1,1-dioxo-1,4-dihydro-1λ^6-benzo[1,2,4]thiadiazin-3-yl]-1-(4-fluoro-benzyl)-4-hydroxy-pyrrolo[1,2-b]pyridazin-2-one], the IC50 lay within 100 to 3000 nM.

For the compound `O=c1c(C2=NS(=O)(=O)c3ccccc3N2)c(O)c2cccn2n1Cc1ccc(F)cc1` [Example 12, 3-(1,1-Dioxo-1,4-dihydro-1λ^6-benzo[1,2,4]thiadiazin-3-yl)-1-(4-fluoro-benzyl)-4-hydroxy-pyrrolo[1,2-b]pyridazin-2-one], the IC50 lay in the range of 100 to 3000 nM.

Take `CC(C)CCn1c(=O)c(C2=NS(=O)(=O)c3cc(NS(=O)(=O)C4CC4)ccc3N2)c(O)c2cccn21` [Example 13, Cyclopropanesulfonic acid {3-[4-hydroxy-1-(3-methyl-butyl)-2-oxo-1,2-dihydro-pyrrolo[1,2-b]pyridazin-3-yl]-1,1-dioxo-1,4-dihydro-1λ^6-benzo[1,2,4]thiadiazin-7-yl}-amide]: the IC50 lay in the range of 100 to 3000 nM.

With `CC(C)CCn1c(=O)c(C2=NS(=O)(=O)c3ccccc3N2)c(O)c2cccn21` [Example 1, 3-(1,1-Dioxo-1,4-dihydro-1λ^6-benzo[1,2,4]thiadiazin-3-yl)-4-hydroxy-1-(3-methyl-butyl)-pyrrolo[1,2-b]pyridazin-2-one], the IC50 fell in the range of 100 to 3000 nM.

For `CS(=O)(=O)Nc1ccc2c(c1)S(=O)(=O)N=C(c1c(O)c3cccn3n(Cc3ccc(F)cc3)c1=O)N2` [Example 9, N-{3-[1-(4-Fluoro-benzyl)-4-hydroxy-2-oxo-1,2-dihydro-pyrrolo[1,2-b]pyridazin-3-yl]-1,1-dioxo-1,4-dihydro-1λ^6-benzo[1,2,4]thiadiazin-7-yl}-methanesulfonamide], the IC50 was less than 100 nM.

For `CC(C)CCn1c(=O)c(C2=CS(=O)(=O)c3cc(NS(C)(=O)=O)ccc3N2)c(O)c2cccn21` [Example 16, N-{3-[4-Hydroxy-1-(3-methyl-butyl)-2-oxo-1,2-dihydro-pyrrolo[1,2-b]pyridazin-3-yl]-1,1-dioxo-1,4-dihydro-1λ^6-benzo[1,4]thiazin-7-yl}-methanesulfonamide], the IC50 was less than 100 nM.

Take `CC(C)CCn1c(=O)c(C2=NS(=O)(=O)c3cc(NS(C)(=O)=O)ccc3N2)c(O)c2cc(F)cn21` [Example 14, N-{3-[6-Fluoro-4-hydroxy-1-(3-methyl-butyl)-2-oxo-1,2-dihydro-pyrrolo[1,2-b]pyridazin-3-yl]-1,1-dioxo-1,4-dihydro-1λ^6-benzo[1,2,4]thiadiazin-7-yl}-methanesulfonamide]: the IC50 was less than 100 nM.

In the case of `COc1ccc2c(c1)S(=O)(=O)N=C(c1c(O)c3cccn3n(CCC(C)C)c1=O)N2` [Example 2, 4-Hydroxy-3-(7-methoxy-1,1-dioxo-1,4-dihydro-1λ^6-benzo[1,2,4]thiadiazin-3-yl)-1-(3-methyl-butyl)-pyrrolo[1,2-b]pyridazin-2-one], the IC50 is 100 to 3000 nM.

Turning to `CC(C)(C)CCn1c(=O)c(C2=CS(=O)(=O)c3cc(NS(C)(=O)=O)ccc3N2)c(O)c2cccn21` [Example 8, N-{3-[1-(3,3-Dimethyl-butyl)-4-hydroxy-2-oxo-1,2-dihydro-pyrrolo[1,2-b]pyridazin-3-yl]-1,1-dioxo-1,4-dihydro-1λ^6-benzo[1,4]thiazin-7-yl}-methanesulfonamide], the half-maximal inhibitory concentration (IC50) is less than 100 nM.

As to `CC(C)(C)CCn1c(=O)c(C2=NS(=O)(=O)c3cc(NS(C)(=O)=O)ccc3N2)c(O)c2cccn21` [Example 4, N-{3-[1-(3,3-Dimethyl-butyl)-4-hydroxy-2-oxo-1,2-dihydro-pyrrolo[1,2-b]pyridazin-3-yl]-1,1-dioxo-1,4-dihydro-1λ^6-benzo[1,2,4]thiadiazin-7-yl}-methanesulfonamide], the IC50 is less than 100 nM.

Consider `CC(C)CCn1c(=O)c(C2=CS(=O)(=O)c3cc(N(C)S(C)(=O)=O)ccc3N2)c(O)c2cccn21` [Example 7, N-{3-[4-Hydroxy-1-(3-methyl-butyl)-2-oxo-1,2-dihydro-pyrrolo[1,2-b]pyridazin-3-yl]-1,1-dioxo-1,4-dihydro-1λ^6-benzo[1,4]thiazin-7-yl}-N-methyl-methanesulfonamide], for which the IC50 is 100 to 3000 nM.

Regarding `CN(c1ccc2c(c1)S(=O)(=O)N=C(c1c(O)c3cccn3n(CCC(C)(C)C)c1=O)N2)S(C)(=O)=O` [Example 5, N-{3-[1-(3,3-Dimethyl-butyl)-4-hydroxy-2-oxo-1,2-dihydro-pyrrolo[1,2-b]pyridazin-3-yl]-1,1-dioxo-1,4-dihydro-1λ^6-benzo[1,2,4]thiadiazin-7-yl}-N-methyl-methanesulfonamide], the IC50 was less than 100 nM.

In the case of `CC(C)CCn1c(=O)c(C2=NS(=O)(=O)c3cc(NS(C)(=O)=O)ccc3N2)c(O)c2cc(C#N)cn21` [Example 15, N-{3-[6-Cyano-4-hydroxy-1-(3-methyl-butyl)-2-oxo-1,2-dihydro-pyrrolo[1,2-b]pyridazin-3-yl]-1,1-dioxo-1,4-dihydro-1λ^6-benzo[1,2,4]thiadiazin-7-yl}-methanesulfonamide], the IC50 lay within 100 to 3000 nM.
